Structures can show the parent of a compound that is named as a salt.
How the values were obtained:
[1] = hexobarbital induced sleep prolongation in mice; assay type: in vivo; details: white mice; oral dosages starting at 10 mg/kg; dose dependent
Protocol: For example, they effect a significant increase of the duration of hexobarbital induced sleep in mice upon oral administration of from 1 to 100 mg/kg body weight. Electroencephalographical tests in rats show an increase of the classical and the paradoxical sleep phases upon oral administration of from 1 to 100 mg/kg body weight.
(§1) The hydrochloride of formula II, test substance number 1973, and the hydrogentartrate of formula II, test substance number 2961, have been used for pharmacological testing.

[2] = anticonvulsive activity in the screening in white mice; assay type: in vivo; details: oral dosages starting at 10 mg/kg
Description: as §1

toxicity in mice (LD50) = details: mouse, in vivo

Row | SMILES | increase of the duration of hexobarbital induced sleep [1] | anticonvulsive activity [2] | LD50 (toxicity in mice (LD50); ip) [mg/kg] | LD50 (toxicity in mice (LD50); po) [mg/kg]
1 | COC1OC2OC3(CN4CCCCC4)C(O)CC(C2C)C13 (stereo not drawn) [test substance number 1973, 3-piperidinomethyl-4β-hydroxy-8-methoxy-10β-methyl-2,9-dioxatricyclo[4,3,1,0^3,7] decane hydrochloride] | remarkable increase | do not exhibit any anticonvulsive activity | 406 | 1140
2 | COC1OC2OC3(CN4CCCCC4)C(O)CC(C2C)C13 (stereo not drawn) [test substance number 2961, 3-piperidinomethyl-4β-hydroxy-8-methoxy-10β-methyl-2,9-dioxatricyclo-[4,3,1,0^3,7] decane hydrogentartrate] | remarkable increase | do not exhibit any anticonvulsive activity |  | 

Source: US4182889A, “Process for preparing 10-methyl-2,9-dioxatricyclo[4,3,1,0^3,7 ] decanes” (Kali-Chemie Pharma GmbH, priority 1977, dated 1980)
